Source: paper PMC11274883, “Anticancer Effect of Pt^[sequence], Pt^II5MESS, Pt^II56MESS and Their Platinum(IV)-Dihydroxy Derivatives against Triple-Negative Breast Cancer and Cisplatin-Resistant Colorectal Cancer” (Cancers, 2024)

Assays:
Assay type in all cases: cell-based
HT29 cells = assay: Western blot protein expression; conditions: HT29, IC50, 72 h
Procedure: (§1) Protein extraction was then performed on ice. Media were collected in Eppendorf tubes, and centrifuged at 500× g for 5 min at 4 °C. Meanwhile, 200 µL of lysis RIPA buffer, made up of 150 mM NaCl, 50 mM Tris-HCl, pH 8.0, 0.1% Triton X-100, 0.5% sodium deoxycholate, 0.1% SDS and 1 mM sodium orthovanadate, was added to each well, the cells were scrapped into the buffer, and added to the media-derived pellets. The tubes were placed on the shaker for 10 min at 4 °C. Then, cell extracts were centrifuged at 12,000× g for 15 min at 4 °C, and the supernatants (containing the proteins) were collected. The Bio-Rad-DC protein assay (Bio-Rad, Hercules, CA, USA) was used to assess protein content. Laemmli protein sample buffer (4×) with β-mercaptoethanol (9%) was used to prepare a final protein concentration of 20 µg. The samples were then heated at 100 °C for 5 min. A final volume of 30 µL of each sample was added per well and subjected to SDS-PAGE using Bolt 4–12% Bis-Tris gel (Thermo Fisher, Eugene, OR, USA) at 80 V for 30 min and then 120 V for 60 min with PageRuler™ Prestained Protein or SeeBlue Prestained Protein Ladder (Thermo Fisher, Eugene, OR, USA). Proteins were subsequently transferred to a 0.2 µm PVDF membrane (Amersham, Cytiya) using a semi-dry blot transfer. The membrane was then blocked in 5% BSA in TBST, for 1 h and probed overnight at 4 °C with primary antibodies against several cell proliferation, apoptotic, anti-apoptotic, microtubule and autophagic protein markers listed in Table S7 as per the manufacturer’s protocol. The primary antibody was then removed, washed three times for 10 min with TBST and then membranes were treated with either mouse or rabbit HRP-coupled secondary antibodies (1/3000) for 1 h and 30 min. Protein band detection was then performed using the chemiluminescence ECL kit (Thermo Fisher, Eugene, OR, USA). Blot images were obtained using the Odyssey® FC imaging system (LI-COR Biosciences, Lincoln, NE, USA) and band intensities were quantified relatively to glyceraldehyde-3-phosphate dehydrogenase (GAPDH) and then normalised each replicate gel to its corresponding no treatment control using the ImageJ v1.53t software (National Institutes of Health, Bethesda, MD, USA). Each marker results from the same experiment or parallel experiment where the gels were processed in parallel. Three independent experiments per marker were conducted.

MDA−MB−231 cells = assay: Western blot protein expression; conditions: MDA−MB−231, IC50, 72 h
Procedure: as §1

MCF−7 = assay: WST-1 cytotoxicity, 72 h
Procedure: (§2) Cells were seeded in 96-well flat-bottom culture plates at a concentration of 1000 cells per well. […] After 72 h, the medium was removed and replaced with new medium. The cell viability reagent WST-1 (10 µL, Roche Diagnostics, Indianapolis, IN, USA) was added to each well. After an hour, the absorbance was measured at 450 nm using a versatile microplate reader (Bio-strategy, Campbellfield, VIC, Australia). Three separate experiments were performed, each with n = 3 replicates. GraphPad prism 10 was used to calculate apparent IC50 values using the nonlinear regression model Y = Bottom + (Top-Bottom)/(1 + 10^(X-LogIC50)) where Top and bottom are plateaus in the y-axis (% survival).

ADDP = assay: WST-1 cytotoxicity, 72 h
Procedure: as §2

A2780 = assay: WST-1 cytotoxicity, 72 h
Procedure: as §2

HT29 = assay: WST-1 cytotoxicity, 72 h
Procedure: as §2

MDA−MB−231 = assay: WST-1 cytotoxicity, 72 h
Procedure: as §2

MCF10A = assay: WST-1 cytotoxicity, 72 h; conditions: mean ± SEM
Procedure: as §2, with “survival). The R^2 value of the curve fits ranged from 0.8972 to 0.9794.” for “survival).”

[1] = representative blot Figure S30G
[2] = representative blot Figure S30H

N[C@H]1CCCC[C@@H]1N.O=[N+]([O-])[O-].O=[N+]([O-])[O-].[OH-].[OH-].[Pt+4].c1cnc2c(c1)ccc1cccnc12 [[Pt(1,10-phenanthroline)(1S,2S-diaminocyclohexane)(dihydroxy)](NO3)2]
β-actin/GAPDH normalized to control (1) (HT29 cells; representative blot Figure S28A): 0.8943
β-tubulin/GAPDH normalized to control (1) (HT29 cells; representative blot Figure S28B): 0.8137
α-tubulin/GAPDH normalized to control (1) (HT29 cells; representative blot Figure S28C): 0.4054
p-AKT/AKT/GAPDH normalized to control (1) (HT29 cells; representative blot Figure S29A): 1.011
p-ERK/ERK/GAPDH normalized to control (1) (HT29 cells; representative blot Figure S29B): 1.229
p53/GAPDH normalized to control (1) (HT29 cells; representative blot Figure S29C): 4.543
p21/GAPDH normalized to control (1) (HT29 cells; representative blot Figure S29D): 3.293
Bax/GAPDH normalized to control (1) (HT29 cells; representative blot Figure S30A): 3.388
Bcl2/GAPDH normalized to control (1) (HT29 cells; representative blot Figure S30B): 1.194
Cyt C/GAPDH normalized to control (1) (HT29 cells; representative blot Figure S30C): 7.091
Procaspase 8/GAPDH normalized to control (1) (HT29 cells; representative blot Figure S30D): 0.9474
Cleaved BID/GAPDH normalized to control (1) (HT29 cells; representative blot Figure S30E): 2.711
Procaspase 9/GAPDH normalized to control (1) (HT29 cells; representative blot Figure S30F): 0.5927
Cleaved caspase 3/GAPDH normalized to control (1) (HT29 cells; [1]): 1.017
Procaspase 3/GAPDH normalized to control (1) (HT29 cells; [1]): 1.141
Cleaved PARP-1/GAPDH normalized to control (1) (HT29 cells; [2]): 2.239
PARP-1/GAPDH normalized to control (1) (HT29 cells; [2]): 0.6475
Beclin1/GAPDH normalized to control (1) (HT29 cells; representative blot Figure S31A): 8.006
ATG5/GAPDH normalized to control (1) (HT29 cells; representative blot Figure S31B): 0.3102
ATG16L1/GAPDH normalized to control (1) (HT29 cells; representative blot Figure S31C): 4.093
ATG9A/GAPDH normalized to control (1) (HT29 cells; representative blot Figure S31D): 1.203
ATG4B/GAPDH normalized to control (1) (HT29 cells; representative blot Figure S31E): 0.9049
LC3B/GAPDH normalized to control (1) (HT29 cells; representative blot Figure S31F): 2.232
β-actin/GAPDH normalized to control (1) (MDA−MB−231 cells; representative blot Figure S24A): 0.835
β-tubulin/GAPDH normalized to control (1) (MDA−MB−231 cells; representative blot Figure S24B): 0.6552
α-tubulin/GAPDH normalized to control (1) (MDA−MB−231 cells; representative blot Figure S24C): 0.9279
p-AKT/AKT/GAPDH normalized to control (1) (MDA−MB−231 cells; representative blot Figure S25A): 1.063
p-ERK/ERK/GAPDH normalized to control (1) (MDA−MB−231 cells; representative blot Figure S25B): 0.1206
p53/GAPDH normalized to control (1) (MDA−MB−231 cells; representative blot Figure S25C): 1.176
p21/GAPDH normalized to control (1) (MDA−MB−231 cells; representative blot Figure S25D): 1.346
Bax/GAPDH normalized to control (1) (MDA−MB−231 cells; representative blot Figure S26A): 1.398
Bcl2/GAPDH normalized to control (1) (MDA−MB−231 cells; representative blot Figure S26B): 0.7843
Cytochrome C/GAPDH normalized to control (1) (MDA−MB−231 cells; representative blot Figure S26C): 2.378
Procaspase 8/GAPDH normalized to control (1) (MDA−MB−231 cells; representative blot Figure S26D): 0.2888
Cleaved BID/GAPDH normalized to control (1) (MDA−MB−231 cells; representative blot Figure S26E): 1.33
Procaspase 9/GAPDH normalized to control (1) (MDA−MB−231 cells; representative blot Figure S26F): 0.2675
Procaspase 3/GAPDH normalized to control (1) (MDA−MB−231 cells; representative blot Figure S26G): 0.4093
PARP-1/GAPDH normalized to control (1) (MDA−MB−231 cells; representative blot Figure S26H): 0.5717
Beclin1/GAPDH normalized to control (1) (MDA−MB−231 cells; representative blot Figure S27A): 1.408
ATG5/GAPDH normalized to control (1) (MDA−MB−231 cells; representative blot Figure S27B): 1.129
ATG16L1/GAPDH normalized to control (1) (MDA−MB−231 cells; representative blot Figure S27C): 0.9987
ATG9A/GAPDH normalized to control (1) (MDA−MB−231 cells; representative blot Figure S27D): 0.774
ATG4B/GAPDH normalized to control (1) (MDA−MB−231 cells; representative blot Figure S27E): 1.581
LC3B/GAPDH normalized to control (1) (MDA−MB−231 cells; representative blot Figure S27F): 0.6076
Selective cytotoxicity index (SCI) (MCF−7; IC50 MCF10A/IC50 MCF−7): 2.18
potency relative to cisplatin (MCF−7; MCF−7, 72 h): 3 fold
IC50 (MCF−7; MCF−7, 72 h, mean ± SEM): 9.39 ± 1.26 µM
potency relative to cisplatin (ADDP; ADDP, 72 h): 8 fold
IC50 (ADDP; ADDP, 72 h, mean ± SEM): 13.6 ± 1.57 µM
Selective cytotoxicity index (SCI) (ADDP; IC50 MCF10A/IC50 ADDP): 1.49
potency relative to cisplatin (A2780; A2780, 72 h): 3 fold
IC50 (A2780; A2780, 72 h, mean ± SEM): 6.49 ± 1.23 µM
Selective cytotoxicity index (SCI) (A2780; IC50 MCF10A/IC50 A2780): 3.15
potency relative to cisplatin (HT29; HT29, 72 h): 17 fold
IC50 (HT29; HT29, 72 h, mean ± SEM): 4.48 ± 1.77 µM
Selective cytotoxicity index (SCI) (HT29; IC50 MCF10A/IC50 HT29): 4.57
Selective cytotoxicity index (SCI) (MDA−MB−231; IC50 MCF10A/IC50 MDA−MB−231): 6.13
potency relative to cisplatin (MDA−MB−231; MDA−MB−231, 72 h): 4 fold
IC50 (MDA−MB−231; MDA−MB−231, 72 h, mean ± SEM): 3.34 ± 1.37 µM
IC50 (MCF10A): 20.5 ± 1.32 µM
